Laboratory results reported in ChEMBL document CHEMBL3217693, “Synthesis and biological evaluation of 7-arylindoline-1-benzenesulfonamides as a novel class of potent anticancer agents” (Medchemcomm, 2010).

Legend:
KB = assay: Antiproliferative activity against human KB cells assessed as inhibition of cell growth after 72 hrs by methylene blue dye assay; assay type: functional, cell-based
[1] = Antiproliferative activity against human H460 cells assessed as inhibition of cell growth after 72 hrs by methylene blue dye assay; assay type: functional, cell-based; conditions: NCI-H460, 72 h
HT-29 = assay: Antiproliferative activity against human HT-29 cells assessed as inhibition of cell growth after 72 hrs by methylene blue dye assay; assay type: functional, cell-based; conditions: HT-29, 72 h
[2] = Antiproliferative activity against human MKN45 cells assessed as inhibition of cell growth after 72 hrs by methylene blue dye assay; assay type: functional, cell-based; conditions: MKN-45, 72 h
[3] = Antiproliferative activity against human KB-VIN10 cells overexpressing P-gp 170/MDR assessed as inhibition of cell growth after 72 hrs by methylene blue dye assay; assay type: functional, cell-based; conditions: KB-VIN10, 72 h
Tubulin [4] = target: Tubulin (Bos taurus, UniProt Q6B856+Q862L2+Q862F3); assay: Inhibition of bovine brain microtubule-associated protein rich tubulin polymerization by turbidimetric assay
Tubulin [5] = target: T1, Tubulin (UniProt P68371+Q9H4B7+P0DPH7+P68366+Q13509+Q71U36+P04350+Q3ZCM7+P07437+P68363+Q9BQE3+Q6PEY2+Q13885+Q9BVA1+Q9BUF5); assay: Displacement of [3H]colchicine from long-chain biotin-labeled tubulin (unknown origin) at 1 uM after 2 hrs by competition binding scintillation proximity assay; assay type: protein-complex assay; conditions: Homo sapiens
Tubulin [6] = target: T1, Tubulin; assay: Displacement of [3H]colchicine from long-chain biotin-labeled tubulin (unknown origin) at 5 uM after 2 hrs by competition binding scintillation proximity assay; assay type: protein-complex assay; conditions: Homo sapiens

| Compound | IC50 (KB) | IC50 (HT-29) | IC50 (Tubulin [4]) | inhibition (Tubulin [5]) | inhibition (Tubulin [6]) | IC50 [1] | IC50 [2] | IC50 [3] |
| --- | --- | --- | --- | --- | --- | --- | --- | --- |
| COc1ccc(S(=O)(=O)N2CCc3cccc(-c4ccc(N(C)C)cc4)c32)cc1 | 0.538 µM | 0.467 µM |  |  |  | 0.556 µM | 0.237 µM | 0.553 µM |
| COc1ccc(S(=O)(=O)N2CCc3cccc(-c4cc(OC)c(OC)c(OC)c4)c32)cc1 | 3.69 µM | 5.1 µM |  |  |  | 6.34 µM | 1.08 µM | 4.67 µM |
| COc1cc2c(c(OC)c1OC)-c1ccc(OC)c(=O)cc1[C@@H](NC(C)=O)CC2 [COLCHICINE] |  |  |  |  |  |  |  | 0.121 µM |
| COc1ccc(-c2cccc3c2N(S(=O)(=O)c2ccc(OC)cc2)CC3)cc1 | 0.337 µM | 0.277 µM |  |  |  | 0.301 µM | 0.211 µM | 0.352 µM |
| COc1ccc(S(=O)(=O)N2CCc3cccc(-c4ccc(F)c(F)c4)c32)cc1 | 0.045 µM | 0.057 µM | 2.3 µM | 52% | 72% | 0.046 µM | 0.0555 µM | 0.046 µM |
| COc1ccc(S(=O)(=O)N2CCc3cccc(-c4ccccc4)c32)cc1 | 0.12 µM | 0.0965 µM |  |  |  | 0.212 µM | 0.117 µM | 0.107 µM |
| COc1ccc(S(=O)(=O)N2CCc3cccc(-c4cccs4)c32)cc1 | 0.214 µM | 0.2 µM |  |  |  | 0.229 µM | 0.165 µM | 0.251 µM |
| COc1ccc(S(=O)(=O)N2CCc3cccc(-c4ccco4)c32)cc1 | 0.082 µM | 0.0625 µM | 2.6 µM | 43% | 68% | 0.0945 µM | 0.042 µM | 0.0792 µM |
| COc1ccc(S(=O)(=O)N2CCc3cccc(-c4cccnc4)c32)cc1 | 0.0959 µM | 0.0763 µM |  |  |  | 0.0896 µM | 0.0685 µM | 0.0845 µM |
| COc1ccc(S(=O)(=O)N2CCc3cccc(-c4ccc(C#N)cc4)c32)cc1 | 0.0311 µM | 0.0242 µM | 1.5 µM | 81% | 92% | 0.0295 µM | 0.0172 µM | 0.0292 µM |
| COc1ccc(S(=O)(=O)N2CCc3cccc(-c4ccc(N)cc4)c32)cc1 | 0.249 µM | 0.3 µM |  |  |  | 0.288 µM | 0.162 µM | 0.262 µM |
| COc1ccc(S(=O)(=O)N2CCc3cccc(-c4ccc(O)cc4)c32)cc1 | 0.129 µM | 0.133 µM |  |  |  | 0.114 µM | 0.0826 µM | 0.123 µM |

The remaining molecules from weak to strong by IC50 (KB), led by results:

| IC50 (KB) | IC50 (HT-29) | IC50 (Tubulin [4]) | inhibition (Tubulin [5]) | inhibition (Tubulin [6]) | Compound | IC50 [1] | IC50 [2] | IC50 [3] |
| --- | --- | --- | --- | --- | --- | --- | --- | --- |
| 4.04 µM | 3.9 µM |  |  |  | COc1ccc(S(=O)(=O)N2CCc3cccc(-c4c(F)c(F)c(F)c(F)c4F)c32)cc1 | 4.75 µM | 1.78 µM | 4.63 µM |
| 0.143 µM | 0.108 µM |  |  |  | COc1ccc(S(=O)(=O)N2CCc3cccc(-c4ccc(F)nc4)c32)cc1 | 0.135 µM | 0.145 µM | 0.151 µM |
| 0.0985 µM | 0.119 µM |  |  |  | COc1ccc(S(=O)(=O)N2CCc3cccc(-c4cccc(F)c4)c32)cc1 | 0.167 µM | 0.0847 µM | 0.0924 µM |
| 0.096 µM | 0.0875 µM | 2.2 µM | 54% | 72% | COc1ccc(S(=O)(=O)N2CCc3cccc(-c4ccncc4)c32)cc1 | 0.101 µM | 0.0695 µM | 0.106 µM |
| 0.086 µM | 0.0855 µM | 2.5 µM | 59% | 73% | COc1ccc(S(=O)(=O)N2CCc3cccc(-c4ccc(F)cc4)c32)cc1 | 0.0955 µM | 0.079 µM | 0.0946 µM |
| 0.0525 µM | 0.0518 µM | 1.7 µM | 56% | 74% | COc1ccc(S(=O)(=O)N2CCc3cccc(-c4ccc([N+](=O)[O-])cc4)c32)cc1 | 0.0531 µM | 0.034 µM | 0.0513 µM |
